Here are results for five compounds from PMC8151276, “An Integrated Approach toward NanoBRET Tracers for Analysis of GPCR Ligand Engagement” (Molecules, 2021).

Common to all, as to type: binding
One experiment addresses T1, NMUR2 (Homo sapiens, UniProt Q9GZQ4).
T1 construct: purchased Promega (in-house HiBiT-GPCR construct library, NanoBRET)
Briefly: NanoBRET screen HiBiT-NMUR2 in HEK293. As to the method: (§1) Each tracer candidate was screened across the entire library of HiBiT-GPCR constructs using NanoBRET as the detection modality. As depicted in Figure 4A, the specificity of interactions was evaluated through decrease in BRET due to competitive displacement of a bound tracer by excess parental compound. Each tracer was analyzed for binding to each HiBiT-GPCR fusion in the absence and in the presence of competing parental compound. Briefly, HEK293 cells were transfected with HiBiT-GPCR constructs diluted into promoterless DNA to reduce expression and maximize translocation to the cell surface. Each tracer candidate was then screened at concentrations of 1 μM and 0.1 μM across cells expressing these fusions. Cells were treated for 1.5 h with tracer either alone or in the presence of 20 μM competing parental compound (i.e., control). BRET was measured upon addition of purified LgBiT and subsequent complementation with HiBiT genetically fused to a GPCR. The specificity of interactions was assessed through a decrease in BRET signal due to competitive displacement of the bound tracer. To further gauge the robustness of these interactions, the fold response over the control (i.e., BRETtracer/BRETcontrol) was calculated. We chose a 1.5-fold response, which translates to ≥7-fold signal over noise as the minimal threshold required to score an interaction as positive. […]. Below we highlight the screening results obtained for our exemplary fluorescent tracers based on Clozapine, Amitriptyline and AZD1283.
(§2) HiBiT-GPCR DNA constructs were diluted in 10 mM Tris pH 8 to a final concentration of 0.01 μg/μL, arrayed in 96-well plates and stored at −20 °C. For transfection, HEK293 cells were suspended in Opti-MEM (without phenol red) supplemented with 2% fetal bovine serum (Seradigm) and 100 units/mL penicillin–streptomycin (Gibco) at a final concentration of 220,000 cells/mL and dispensed into white 96-well plates at 90 μL/well. Subsequent transfections and screens were carried using an Agilent Bravo Automated Liquid Handling Platform. First, the 96-well HiBiT DNA arrays were diluted 25-fold in Opti-MEM (without serum or phenol red) to a final concentration of 0.0004 μg/μL and 20 μL of the diluted DNAs were transferred into new 96-well plates. Next, promoterless carrier DNA (1 μg/μL) was diluted 25-fold (0.04 μg/μL) and then dispensed into the diluted arrays at 20 μL/well. Following brief mixing, Viafect transfection reagent (Promega) diluted 16-fold into Opti-MEM was dispensed into the plates at 40 μL/well. After mixing by pipetting, plates were incubated for 10 min on the pipetting station deck. The DNA-transfection reagent complexes were then added to plates containing cells. To facilitate the screen, 10 μL of DNA-transfection reagent complexes were added in duplicates to the top 4 and bottom 4 rows, resulting in two identical 48-well arrays per plate. Plates with transfected cells were incubated for 18–20 h at 37 °C/5% CO2. A screen of each tracer across the entire library using two different concentrations requires duplicate plates of transfected cells. Depending on the number of tracers being screened, transfections can be scaled up using the same ratios. The next day, for each tracer, four 20× screening solutions in tracer dilution buffer (Promega) were prepared: two duplicates at final concentration of 20 μM and two duplicates at a final concentration of 2 μM. A competing unmodified compound was added to one of each duplicate at a final concentration of 400 μM. The four resulting solutions were diluted 4-fold in Opti-MEM without serum or phenol red to generate 5× solutions (5 µM and 0.5 µM tracer +/− 100 μM competing compound). To screen the library, a BioTek MultiFlo FX liquid dispenser was used to dispense 22.5 µL of tracer solution to the top 4 rows and 22.5 µL tracer + competing compound solution to the 4 bottom rows. Plates were briefly mixed on an orbital shaker and incubated for 1.5 h at room temperature. […]
(BRET reads energy transfer from a luciferase to a nearby fluorophore.)

In another experiment the target is T2, CX3CR1 (Homo sapiens, UniProt P49238).
T2 construct: purchased Promega (in-house HiBiT-GPCR construct library, NanoBRET)
T2 sequence (P49238 1-355): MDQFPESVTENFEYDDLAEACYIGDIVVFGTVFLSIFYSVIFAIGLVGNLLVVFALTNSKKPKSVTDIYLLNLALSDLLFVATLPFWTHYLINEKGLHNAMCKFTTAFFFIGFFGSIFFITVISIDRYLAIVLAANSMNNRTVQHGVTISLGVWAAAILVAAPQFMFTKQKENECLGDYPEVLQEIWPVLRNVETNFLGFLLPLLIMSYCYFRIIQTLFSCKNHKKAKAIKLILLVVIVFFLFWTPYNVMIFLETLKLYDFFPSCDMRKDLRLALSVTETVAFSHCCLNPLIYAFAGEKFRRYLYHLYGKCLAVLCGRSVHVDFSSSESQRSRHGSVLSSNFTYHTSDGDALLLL
Briefly: NanoBRET screen HiBiT-CX3CR1 in HEK293. As to the method: as §1, §2

The target of a further experiment is T3, P2RY11 (Homo sapiens, UniProt Q96G91).
T3 construct: purchased Promega (in-house HiBiT-GPCR construct library, NanoBRET)
T3 sequence (Q96G91 1-374): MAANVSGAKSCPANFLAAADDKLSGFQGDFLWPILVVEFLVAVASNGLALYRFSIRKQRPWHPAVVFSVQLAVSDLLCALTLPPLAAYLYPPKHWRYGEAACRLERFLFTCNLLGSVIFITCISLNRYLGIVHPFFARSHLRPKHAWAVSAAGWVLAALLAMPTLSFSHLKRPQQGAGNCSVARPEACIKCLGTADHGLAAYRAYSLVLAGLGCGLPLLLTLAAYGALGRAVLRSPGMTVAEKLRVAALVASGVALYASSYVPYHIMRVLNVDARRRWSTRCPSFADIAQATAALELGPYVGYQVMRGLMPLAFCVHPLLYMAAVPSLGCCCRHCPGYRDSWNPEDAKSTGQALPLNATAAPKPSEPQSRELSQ
Put plainly: NanoBRET screen HiBiT-P2RY11 in HEK293. As to the method:
as §1, §2

The target in a further experiment is T4, P2RY10 (Homo sapiens, UniProt O00398).
T4 construct: purchased Promega (in-house HiBiT-GPCR construct library, NanoBRET)
T4 sequence (O00398 whole entry, one chain of several): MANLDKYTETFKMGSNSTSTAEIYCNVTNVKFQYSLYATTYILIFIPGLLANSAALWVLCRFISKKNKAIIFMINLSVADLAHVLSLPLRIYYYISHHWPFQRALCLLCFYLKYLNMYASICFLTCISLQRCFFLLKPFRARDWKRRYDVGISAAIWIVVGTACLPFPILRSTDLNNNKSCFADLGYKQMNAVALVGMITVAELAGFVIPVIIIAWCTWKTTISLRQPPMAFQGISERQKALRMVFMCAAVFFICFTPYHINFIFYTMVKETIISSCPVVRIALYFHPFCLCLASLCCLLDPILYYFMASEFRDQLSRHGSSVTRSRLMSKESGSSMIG
Briefly: NanoBRET screen HiBiT-P2RY10 in HEK293. The procedure: as §1, §2

The next experiment addresses T5, HTR1D (Homo sapiens, UniProt P28221).
T5 construct: purchased Promega (in-house HiBiT-GPCR construct library, NanoBRET)
Briefly: NanoBRET screen HiBiT-HTR1D in HEK293. As to the method:
as §1, §2

The mark [1] stands for this setting: tracer at 0.1μM, listed as amitriptyline-b-2-NB590.
Setting [2] is: tracer at 1μM, listed as amitriptyline-b-2-NB590.

Molecules are shown by their SMILES.

T5 sequence (P28221 whole entry): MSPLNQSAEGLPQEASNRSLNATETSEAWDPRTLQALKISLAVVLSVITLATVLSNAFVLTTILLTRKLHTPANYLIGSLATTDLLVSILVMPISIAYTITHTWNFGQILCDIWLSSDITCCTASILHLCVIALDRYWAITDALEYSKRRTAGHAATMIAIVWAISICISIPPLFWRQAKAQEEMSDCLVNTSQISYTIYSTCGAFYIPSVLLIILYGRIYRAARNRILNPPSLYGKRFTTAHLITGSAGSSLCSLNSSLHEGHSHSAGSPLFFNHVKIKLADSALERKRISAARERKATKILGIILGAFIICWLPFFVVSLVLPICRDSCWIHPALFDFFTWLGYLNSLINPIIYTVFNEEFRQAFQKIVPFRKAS
T1 sequence (Q9GZQ4 whole entry): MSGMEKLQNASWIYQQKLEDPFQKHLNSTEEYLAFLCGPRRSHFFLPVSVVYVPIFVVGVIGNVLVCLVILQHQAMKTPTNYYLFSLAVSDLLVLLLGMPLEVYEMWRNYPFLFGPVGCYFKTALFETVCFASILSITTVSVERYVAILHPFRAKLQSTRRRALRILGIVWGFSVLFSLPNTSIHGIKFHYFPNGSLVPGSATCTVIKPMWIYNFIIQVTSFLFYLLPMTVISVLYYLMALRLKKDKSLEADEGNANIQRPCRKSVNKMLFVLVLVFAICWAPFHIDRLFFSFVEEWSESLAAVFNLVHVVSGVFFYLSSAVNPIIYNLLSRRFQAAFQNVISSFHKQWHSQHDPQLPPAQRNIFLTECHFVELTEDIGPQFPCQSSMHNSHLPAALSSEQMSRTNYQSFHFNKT

In the case of `CN(C)CCC=C1c2ccccc2CCc2ccc(C(=O)NCCNC(=O)CCOCCOCCOCCOCCNC(=O)CCc3ccc4n3[B-](F)(F)[N+]3=C(c5ccc[nH]5)C=CC3=C4)cc21` [Amitriptyline-b-2-NB590], the “NanoBRET Fold Response” value at NMUR2 (setting [1]) is reported as 0.99; on NMUR2 (setting [2]), 1.00; at CX3CR1 (setting [1]), 1.14; on CX3CR1 (setting [2]), 0.86; on P2RY11 (setting [1]) it was 0.88; on P2RY11 (setting [2]) it was 0.96. Moreover, the “NanoBRET Fold Response” value on P2RY10 (setting [1]) turned out to be 1.14; on P2RY10 (setting [2]) it was 1.38; on HTR1D (setting [1]), 1.43; at HTR1D (setting [2]) it was 0.74.
In the case of `O=C(CCOCCOCCOCCOCCNC(=O)CCc1ccc2n1[B-](F)(F)[N+]1=C(c3ccc[nH]3)C=CC1=C2)NCCCN1CCN(C2=Nc3ccccc3Oc3ccc(Cl)cc32)CC1` [Loxapine-a-2-NB590], the “NanoBRET Fold Response” value at NMUR2 (NMUR2, tracer 0.1μM) stood at 1.07; at NMUR2 (NMUR2, tracer 1μM), 0.74; at CX3CR1 (CX3CR1, tracer 0.1μM), 1.05; at CX3CR1 (CX3CR1, tracer 1μM), 0.91; on P2RY11 (P2RY11, tracer 0.1μM) it was 1.02; on P2RY11 (P2RY11, tracer 1μM) it was 0.94. In addition, the “NanoBRET Fold Response” value at P2RY10 (P2RY10, tracer 0.1μM) was 1.14; at P2RY10 (P2RY10, tracer 1μM), 0.98; on HTR1D (HTR1D, tracer 0.1μM), 1.35; at HTR1D (HTR1D, tracer 1μM), 1.74.
Take `CCCn1c(=O)c2[nH]c(-c3ccc(OCC(=O)NCCNC(=O)CCOCCNC(=O)c4ccc(CNC(=O)CCc5ccc6n5[B-](F)(F)[N+]5=C(c7ccc[nH]7)C=CC5=C6)cc4)cc3)nc2n(CCC)c1=O` [XAC-3-NB590]: the “NanoBRET Fold Response” value is recorded as 1.11 on NMUR2 (NMUR2, tracer 0.1μM); 0.89 at NMUR2 (NMUR2, tracer 1μM); 0.87 at CX3CR1 (CX3CR1, tracer 0.1μM); 0.83 at CX3CR1 (CX3CR1, tracer 1μM); 1.21 at P2RY11 (P2RY11, tracer 0.1μM); 1.25 at P2RY11 (P2RY11, tracer 1μM). In addition, the “NanoBRET Fold Response” value at P2RY10 (P2RY10, tracer 0.1μM) is given as 0.88; on P2RY10 (P2RY10, tracer 1μM) it was 0.84; on HTR1D (HTR1D, tracer 0.1μM) it was 0.47; at HTR1D (HTR1D, tracer 1μM) it was 0.65.
Regarding `CN(C)CCC=C1c2ccccc2CCc2ccc(C(=O)NCCNC(=O)CCOCCOCCOCCOCCNC(=O)CCc3ccc4n3[B-](F)(F)[N+]3=C(c5ccc[nH]5)C=CC3=C4)cc21` [Amitriptyline-a-2-NB590], the “NanoBRET Fold Response” value at NMUR2 (tracer at 0.1μM) was 1.00; at NMUR2 (tracer at 1μM) it was 1.02; at CX3CR1 (tracer at 0.1μM) it was 1.07; on CX3CR1 (tracer at 1μM), 0.99; on P2RY11 (tracer at 0.1μM), 1.13; on P2RY11 (tracer at 1μM), 1.07. The “NanoBRET Fold Response” value on P2RY10 (tracer at 0.1μM) is given as 1.09; at P2RY10 (tracer at 1μM), 1.07; on HTR1D (tracer at 0.1μM) it was 1.09; at HTR1D (tracer at 1μM), 1.09.
`CCOC(=O)c1cc(C#N)c(N2CCC(C(=O)NS(=O)(=O)Cc3ccccc3/C=C/C(=O)NCCNC(=O)CCc3ccc4n3[B-](F)(F)[N+]3=C(c5ccc[nH]5)C=CC3=C4)CC2)nc1C` [AZD1283-1-NB590]: the “NanoBRET Fold Response” value on NMUR2 (NMUR2, 0.1μM) amounted to 1.01; on NMUR2 (NMUR2, 1μM), 0.86; at CX3CR1 (CX3CR1, 0.1μM), 1.09; on CX3CR1 (CX3CR1, 1μM), 1.08; at P2RY11 (P2RY11, 0.1μM) it was 1.09; at P2RY11 (P2RY11, 1μM), 1.04. Also, the “NanoBRET Fold Response” value on P2RY10 (P2RY10, 0.1μM) is 1.35; on P2RY10 (P2RY10, 1μM), 1.22; at HTR1D (HTR1D, 0.1μM), 0.90; on HTR1D (HTR1D, 1μM), 0.88.
